# Source: patent US20250332173A1, “COMPOUNDS AND METHODS FOR MODULATING NUCLEIC ACID SPLICING” (REMIX THERAPEUTICS INC., priority 2021, published 2025)
# Read-outs that look alike come from different tables or passages of the source.
# Assays:
# HTT mRNA = assay: RT-qPCR splicing assay, HTT canonical junction (CJ) and alternative junction (AJ) mRNA; type: cell-based, human; settings: Homo sapiens; for AC50: increase in HTT alternative junction (AJ) mRNA, read-out: HTT AJ AC50
# Procedure: (§1) The expression of a target mRNA was measured by detecting the formation of an exon-exon junction in the canonical transcript (CJ). A compound mediated exon-inclusion event was detected by observing an increase in formation of a new junction with an alternative exon (AJ). Real-time qPCR assays were used to detect these splicing switches and interrogate the potency of various compounds towards different target genes. A high-throughput real time quantitative PCR (RT-qPCR) assay was developed to measure these two isoforms of the mRNA (CJ and AJ) for exemplary genes, such as HTT, SMN2, and MYB, together with a control housekeeping gene, GAPDH or GUSB or PPIA, used for normalization. Briefly, the A673 or K562 cell line was treated with various compounds described herein (e.g., compounds of Formula (I)). After treatment, the levels of the HTT, MYB, or SMN2 mRNA targets were determined from each sample of cell lysate by cDNA synthesis followed by qPCR.
# (§2) • Cells-to-CT 1-step kit: ThermoFisher A25602, Cells-to-CT lysis reagent: ThermoFisher 4391851C, TaqMan™ Fast Virus 1-Step Master Mix: ThermoFisher 4444436 • GAPDH: VIC-PL, ThermoFisher 4326317E (Assay: Hs99999905_m1)—used for K562/suspension cell lines • GUSB: VIC-PL, ThermoFisher 4326320E (Assay: Hs99999908_m1)—used for K562/suspension cell lines • PPIA: VIC-PL, ThermoFisher 4326316E (Assay: Hs99999904_m1)—used for A673/adherent cell lines
# (§3) The A673 cell line was cultured in DMEM with 10% FBS. Cells were diluted with full growth media and plated in a 96-well plate (15,000 cells in 100 ul media per well). The plate was incubated at 37° C. with 5% CO2 for 24 hours to allow cells to adhere. An 11-point 3-fold serial dilution of the compounds was made in DMSO then diluted in media in an intermediate plate. Compounds were transferred from the intermediate plate to the cell plate with the top dose at a final concentration of 10 uM in the well. Final DMSO concentration was kept at or below 0.25%. The cell plate was returned to the incubator at 37° C. with 5% CO2 for an additional 24 hours.
# (§4) The K562 cell line was cultured in IMDM with 10% FBS. For K562, cells were diluted with full growth media and plated in either a 96-well plate (50,000 cells in 50 uL media per well) or a 384-well plate (8,000-40,000 cells in 45 uL media per well). An 11-point 3-fold serial dilution of the compounds were made in DMSO then diluted in media in an intermediate plate. Compound was transferred from the intermediate plate to the cell plate with the top dose at a final concentration of 10 uM in the well. Final DMSO concentration was kept at or below 0.25%. Final volume was 100 uL for 96-well plate and 50 uL for 384-well plate. The cell plate was then placed in an incubator at 37° C. with 5% CO2 for 24 hours.
# (§5) The cells were then gently washed with 50 uL-100 uL cold PBS before proceeding to addition of lysis buffer. 30 uL-50 uL of room temperature lysis buffer with DNAse I (and optionally RNAsin) was added to each well. Cells were shaken/mixed thoroughly at room temperature for 5-10 minutes for lysis to take place and then 3 uL-5 uL of room temperature stop solution was added and wells were shaken/mixed again. After 2-5 minutes, the cell lysate plate was transferred to ice for RT-qPCR reaction setup. The lysates could also be frozen at −80° C. for later use.
# (§6) In some cases, a direct lysis buffer was used. An appropriate volume of 3× lysis buffer (10 mM Tris, 150 mM NaCl, 1.5%-2.5% Igepal and 0.1-1 U/uL RNAsin, pH 7.4) was directly added to either K562 or A673 cells in media and mixed by pipetting 3 times. The plates were then incubated at room temperature with shaking/rocking for 20-50 minutes to allow for lysis to take place. After this time, the cell lysate plate was transferred to ice to set up for the RT-qPCR reactions. The lysates could also be frozen at −80° C. for later use.
# SMN2 mRNA = assay: RT-qPCR splicing assay, SMN2 canonical junction (CJ) mRNA; type: cell-based, human; settings: Homo sapiens; Table 5 panel; canonical junction qPCR; compound concentration having 50% response in CJ decrease; read-out: SMN2 IC50 (decrease in CJ mRNA levels)
# Procedure: as §1, §3, §4, §5, §6
# (§7) To set up 10 uL RT-qPCR reactions, cell lysates were transferred to 384-well qPCR plates containing the master mix according to the table below. The plates were sealed, gently vortexed, and spun down before the run. The volumes were adjusted accordingly in some instances where the reaction was carried in 20 uL. The table below summarizes the components of the RT-qPCR reactions:
# (§8) The RT-qPCR reaction was performed using a QuantStudio (ThermoFisher) under the following fast cycling conditions.
# MYB mRNA = assay: RT-qPCR splicing assay, MYB canonical junction (CJ) and alternative junction (AJ) mRNA; type: cell-based, human; settings: Homo sapiens; for AC50: increase in MYB alternative junction (AJ) mRNA, read-out: MYB AJ AC50
# Procedure: as §1, §2, §3, §4, §5, §6
# Target C = assay: RT-qPCR splicing assay panel, Target C canonical junction (CJ) mRNA; type: cell-based, human; settings: Homo sapiens
# Procedure: as §1, §3, §4, §5, §6, §7, §8
# [1] = test system: K562 (human chronic myelogenous leukemia) cells; assay: Cell Titer Glo 2.0 cell viability assay; type: cell-based; settings: Homo sapiens, K562, 72 h, K562 cells, 72 hours, Cell Titer Glo 2.0; read-out: K562 GI50
# [2] = decrease in HTT canonical junction (CJ) mRNA, RT-qPCR, read-out: HTT CJ IC50
# [3] = Table 5 panel, canonical junction qPCR, compound concentration having 50% response in CJ decrease, read-out: HTT IC50 (decrease in CJ mRNA levels)
# [4] = decrease in MYB canonical junction (CJ) mRNA, RT-qPCR, read-out: MYB CJ IC50
# [5] = Table 5 panel, canonical junction qPCR, compound concentration having 50% response in CJ decrease, read-out: Target C IC50 (decrease in CJ mRNA levels)
# [6] = canonical junction qPCR panel, Table 5, read-out: HTT (decrease in CJ mRNA levels, IC50)
# [7] = canonical junction qPCR panel, Table 5, read-out: MYB (decrease in CJ mRNA levels, IC50)
# [8] = canonical junction qPCR panel, Table 5, read-out: Target C (decrease in CJ mRNA levels, IC50)
SMILES,IC50 (HTT mRNA; [2]) [nM],IC50 (HTT mRNA; [3]) [nM],IC50 (SMN2 mRNA) [nM],"IC50 (MYB mRNA; Table 5 panel, canonical junction qPCR, compound concentration having 50% response in CJ decrease, read-out: MYB IC50 (decrease in CJ mRNA levels)) [nM]",IC50 (MYB mRNA; [4]) [nM],IC50 (Target C; [5]) [nM],IC50 (HTT mRNA; [6]) [nM],IC50 (MYB mRNA; [7]) [nM],IC50 (Target C; [8]) [nM],GI50 [1] [nM],AC50 (HTT mRNA; RT-qPCR) [nM],AC50 (MYB mRNA; RT-qPCR) [nM]
Cc1cn2nc(-c3ccc4c(c3)CCN(C3CCNCC3)C4=O)cc(C)c2n1 [Compound 185],1000 to 10000,100 to 1000,100 to 1000,1000 to 10000,1000 to 10000,,,,,,100 to 1000,1000 to 10000
Cc1cn2cc(-c3ccc4c(=O)n(C5CCNCC5)ncc4c3)nc2c(C)n1 [Compound 258],> 10000,,,,,,,,,,1000 to 10000,
Cc1cn2nc(-c3ccc4c(=O)n(C5CCOCC5)ncc4c3)cc(C)c2n1 [Compound 275],,> 10000,,,,> 10000,,,,,,
CC[C@@H]1C[C@@H](n2ncc3cc(-c4cc(C)c5nc(C)cn5n4)ccc3c2=O)CCN1 [Compound 305],1000 to 10000,100 to 1000,,,,100 to 1000,,,,,100 to 1000,
"Cc1cn2nc(-c3ccc4c(=O)n([C@@H]5CCNC6(CC6)C5)ccc4n3)cc(C)c2n1 [Compound 1505, 6-[(7R)-4-azaspiro[2.5]octan-7-yl]-2-(2,8-dimethylimidazo[1,2-b]pyridazin-6-yl)-1,6-naphthyridin-5-one]",100 to 1000,,,,100 to 1000,,100 to 1000,100 to 1000,100 to 1000,1000 to 10000,100 to 1000,100 to 1000
"Cc1cn2nc(-c3ccc4c(=O)n([C@H]5CCNC6(CC6)C5)ccc4n3)cc(C)c2n1 [Compound 1506, 6-[(7S)-4-azaspiro[2.5]octan-7-yl]-2-(2,8-dimethylimidazo[1,2-b]pyridazin-6-yl)-1,6-naphthyridin-5-one]",< 100,,,,< 100,,< 100,100 to 1000,100 to 1000,100 to 1000,< 100,100 to 1000
Cc1cn2cc(-c3ccc4c(=O)n([C@@H]5CCNC6(CC6)C5)ccc4n3)cc(F)c2n1 [Compound 1510],1000 to 10000,,,,1000 to 10000,,100 to 1000,100 to 1000,1000 to 10000,100 to 1000,100 to 1000,100 to 1000
Cc1cn2cc(-c3ccc4c(=O)n([C@H]5CCNC6(CC6)C5)ccc4n3)cc(F)c2n1 [Compound 1511],100 to 1000,,,,100 to 1000,,100 to 1000,100 to 1000,100 to 1000,100 to 1000,100 to 1000,100 to 1000
Cc1c(O)c(-c2ncc3c(=O)n([C@@H]4CCNC5(CC5)C4)ccc3n2)cc2cn(C)nc12 [Compound 1513],1000 to 10000,,,,100 to 1000,,100 to 1000,100 to 1000,1000 to 10000,100 to 1000,100 to 1000,100 to 1000
"Cc1c(O)c(-c2nc(C)c3c(=O)n([C@H]4CCNC5(CC5)C4)ccc3n2)cc2cn(C)nc12 [Compound 1514, 6-[(7S)-4-azaspiro[2.5]octan-7-yl]-2-(6-hydroxy-2,7-dimethyl-indazol-5-yl)-4-methyl-pyrido[4,3-d]pyrimidin-5-one]",1000 to 10000,,,,100 to 1000,,> 10000,100 to 1000,1000 to 10000,100 to 1000,> 10000,100 to 1000
Cc1c(O)c(-c2nc(C)c3c(=O)n(C4C[C@H](C)N[C@@H](C)C4)ccc3n2)cc2cn(C)nc12 (stereo partly drawn) [Compound 1516],1000 to 10000,,,,100 to 1000,,1000 to 10000,100 to 1000,> 10000,100 to 1000,1000 to 10000,100 to 1000
"Cc1cn2nc(-c3cc(C)c4c(=O)n(C5CCNC6(CC6)C5)ncc4n3)cc(C)c2n1 (stereo not drawn) [Compound 1552, 6-(4-azaspiro[2.5]octan-7-yl)-2-(2,8-dimethylimidazo[1,2-b]pyridazin-6-yl)-4-methyl-pyrido[2,3-d]pyridazin-5-one]",100 to 1000,,,,100 to 1000,,100 to 1000,100 to 1000,100 to 1000,100 to 1000,100 to 1000,100 to 1000

# Second part, led by results:
IC50 (HTT mRNA; [2]) [nM],IC50 (HTT mRNA; [3]) [nM],IC50 (SMN2 mRNA) [nM],"IC50 (MYB mRNA; Table 5 panel, canonical junction qPCR, compound concentration having 50% response in CJ decrease, read-out: MYB IC50 (decrease in CJ mRNA levels)) [nM]",IC50 (MYB mRNA; [4]) [nM],IC50 (Target C; [5]) [nM],IC50 (HTT mRNA; [6]) [nM],IC50 (MYB mRNA; [7]) [nM],IC50 (Target C; [8]) [nM],GI50 [1] [nM],SMILES,AC50 (HTT mRNA; RT-qPCR) [nM],AC50 (MYB mRNA; RT-qPCR) [nM]
> 10000,> 10000,100 to 1000,,,,,,,,Cc1cc(-c2ccc3nc(N4CCN(C)CC4)[nH]c(=O)c3c2)cc2cn(C)nc12 [Compound 165],> 10000,
100 to 1000,< 100,,,,100 to 1000,,,,,Cc1cn2nc(-c3ccc4c(=O)n([C@H]5CCN[C@H](C)C5)ncc4c3)cc(C)c2n1 [Compound 273],< 100,
100 to 1000,,,,100 to 1000,,100 to 1000,100 to 1000,1000 to 10000,100 to 1000,C[C@H]1C[C@@H](n2ccc3nc(-c4cc(F)c5nn(C)cc5c4)ccc3c2=O)CCN1 [Compound 1507],100 to 1000,100 to 1000
< 100,,,,< 100,,< 100,< 100,< 100,< 100,"Cc1c(O)c(-c2ccc3c(=O)n([C@H]4CCNC5(CC5)C4)ccc3n2)cc2cn(C)nc12 [Compound 1508, 6-[(7S)-4-azaspiro[2.5]octan-7-yl]-2-(6-hydroxy-2,7-dimethyl-indazol-5-yl)-1,6-naphthyridin-5-one]",< 100,< 100
100 to 1000,,,,100 to 1000,,100 to 1000,< 100,100 to 1000,100 to 1000,"Cc1c(O)c(-c2ccc3c(=O)n([C@@H]4CCNC5(CC5)C4)ccc3n2)cc2cn(C)nc12 [Compound 1509, 6-[(7R)-4-azaspiro[2.5]octan-7-yl]-2-(6-hydroxy-2,7-dimethyl-indazol-5-yl)-1,6-naphthyridin-5-one]",100 to 1000,< 100
